Molecular target: T1, human VDR receptor (Homo sapiens, UniProt P11473)
T1 construct: expressed in transfected cells; host or cells: HeLa
T1 sequence (P11473 1-427): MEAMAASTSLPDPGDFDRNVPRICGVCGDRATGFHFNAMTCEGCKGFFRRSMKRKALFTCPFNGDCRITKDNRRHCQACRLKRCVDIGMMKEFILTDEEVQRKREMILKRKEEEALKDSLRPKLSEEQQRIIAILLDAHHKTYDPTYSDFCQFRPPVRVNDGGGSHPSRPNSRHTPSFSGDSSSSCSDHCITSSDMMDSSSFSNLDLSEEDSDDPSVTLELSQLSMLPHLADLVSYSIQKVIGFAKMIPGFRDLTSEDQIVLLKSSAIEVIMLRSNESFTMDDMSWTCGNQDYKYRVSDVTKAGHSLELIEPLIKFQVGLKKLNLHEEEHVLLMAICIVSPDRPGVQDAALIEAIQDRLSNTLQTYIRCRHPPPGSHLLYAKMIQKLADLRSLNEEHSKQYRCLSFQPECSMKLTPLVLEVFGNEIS
Assay: VDR agonist activity, co-transfection of human VDR expression vector and p240Hase-CAT reporter in HeLa cells
Type: cell-based
Conditions: HeLa cell line, CAT reporter under rat 24-hydroxylase promoter, 18 hours treatment, ELISA; read-out: AC 50 (dose required to achieve 50% of the maximum activity of the product)
Procedure: By way of example, the VDR agonist activity can be tested on the HeLa cell line by co-transfection with an expression vector for the human VDR receptor and the reporter plasmid p240Hase-CAT which contains the region −1399 to +76 of rat 24-hydroxylase promoter, cloned upstream of the frame encoding the chloramphenicol-acetyl-transferase (CAT)′gene. 18 hours after co-transfection, the test product is added to the medium. 18 hours after treatment, assay of the CAT activity in the cell lysates is carried out by an ELISA test. The results are expressed as percentages of the effect normally observed with 10^−7M calcitriol.
The agonist activity can also be characterized in this co-transfection system, by determining the dose required to reach 50% of the maximum activity of the product (AC50).
The VDR agonist activity was tested on the HeLa cell line, by co-transfection of an expression vector of the human VDR receptor and of the reporter plasmid p240Hase-CAT which contains the region −1399 to +76 of the rat 24-hydroxylase promoter, cloned upstream of the coding frame of the chloramphenicol-acetyl-transferase (CAT) gene. 18 hours after co-transfection, the test product is added to the medium. After treatment for 18 hours, the CAT activity of the cell lysates is assayed by an ELISA test. The results are expressed as a percentage of the effect normally observed with 10^−7 M of calcitriol.
The agonist activity was characterized in this co-transfection system by determining the dose required to achieve 50% of the maximum activity of the product (AC50).

SMILES	AC50
CCC(O)(CC)c1ccc(-c2cccc(SCc3ccc(CO)c(CO)c3)c2)c(C)c1 [Example 10, {4-[4′-(1-Ethyl-1-hydroxypropyl)-2′-methylbiphenyl-3-ylsulphanylmethyl]-2-hydroxymethylphenyl}methanol]	2040 nM
CCC(O)(CC)c1ccc(-c2cccc(OCc3ccc(CO)c(CO)c3)c2C)c(C)c1 [Example 11, {4-[4′-(1-Ethyl-1-hydroxypropl)-2,2′-dimethylbiphenyl-3-yloxymethyl]-2-hydroxymethylphenyl}methanol]	291 nM
CCC(O)(CC)c1cc(C)c(-c2cc(OCc3ccc(CO)c(CO)c3)ccc2C)c(C)c1 [Example 17, {4-[4′-(1-Ethyl-1-hydroxypropyl)-6,2′,6′-trimethylbiphenyl-3-yloxymethyl]-2-hydroxymethylphenyl}methanol]	194 nM
CCC(O)(CC)c1ccc(-c2cc(OCc3ccc(CO)c(CO)c3)ccc2C)cc1 [Example 18, {4-[4′-(1-Ethyl-1-hydroxypropyl)-6-methylbiphenyl-3-yloxymethyl]-2-hydroxymethylphenyl}methanol]	133 nM

Other lines, results leading:

AC50	SMILES
470 nM	CCC(O)(CC)c1ccc(-c2cccc(OCc3ccc(CO)c(CO)c3)c2)c(C)c1 [Example 3, {5-4′-[(1-Ethyl-1-hydroxypropyl)-2′-methylbiphenyl-3-yloxymethyl]-2-hydroxymethylphenyl}methanol]
46 nM	CCC(O)(CC)c1ccc(-c2cc(OCc3ccc(CO)c(CO)c3)ccc2C)c(C)c1 [Example 16, {4-[4′-(1-Ethyl-1-hydroxypropyl)-6,2′-dimethylbiphenyl-3-yloxymethyl]-2-hydroxymethylphenyl}methanol]
451 nM	CCC(O)(CC)c1ccc(-c2cccc(COc3ccc(CO)c(CO)c3)c2)c(C)c1 [Example 22, {4-[4′-(1-Ethyl-1-hydroxypropyl)-2′-methylbiphenyl-3-ylmethoxy]-2-hydroxymethylphenyl}methanol]

Test system: seborrhoeic scalp
Assay: antiseboric lotion applied to a seborrhoeic scalp
Type: in vivo
Conditions: lotion with 0.030 g compound per 100 g, applied twice a day, within a period of 2 to 6 weeks

SMILES	improvement of seborrhoeic scalp
CCCC(O)(CCC)c1ccc(-c2cccc(OCc3ccc(CO)c(CO)c3)c2C)c(C)c1 [Example 12, {2-Hydroxymethyl-4-[4′-(1-hydroxy-1-propylbutyl)-2,2′-dimethylbiphenyl-3-yloxymethyl]phenyl}methanol]	significant improvement
